From patent US10703756B2, “Pyrrolo[2,3-D]pyrimidinyl, pyrrolo[2,3-B]pyrazinyl, pyrrolo[2,3-B]pyridinyl acrylamides and epoxides thereof” (Pfizer Inc., priority 2015, dated 2020)

Experiments:
JAK3 enzyme [1] = target: T1, JAK3 enzyme (Homo sapiens, UniProt P52333); assay: JAK Caliper Enzyme Assay at 1 mM ATP; type: biochemical
T1 sequence (P52333 1-1124): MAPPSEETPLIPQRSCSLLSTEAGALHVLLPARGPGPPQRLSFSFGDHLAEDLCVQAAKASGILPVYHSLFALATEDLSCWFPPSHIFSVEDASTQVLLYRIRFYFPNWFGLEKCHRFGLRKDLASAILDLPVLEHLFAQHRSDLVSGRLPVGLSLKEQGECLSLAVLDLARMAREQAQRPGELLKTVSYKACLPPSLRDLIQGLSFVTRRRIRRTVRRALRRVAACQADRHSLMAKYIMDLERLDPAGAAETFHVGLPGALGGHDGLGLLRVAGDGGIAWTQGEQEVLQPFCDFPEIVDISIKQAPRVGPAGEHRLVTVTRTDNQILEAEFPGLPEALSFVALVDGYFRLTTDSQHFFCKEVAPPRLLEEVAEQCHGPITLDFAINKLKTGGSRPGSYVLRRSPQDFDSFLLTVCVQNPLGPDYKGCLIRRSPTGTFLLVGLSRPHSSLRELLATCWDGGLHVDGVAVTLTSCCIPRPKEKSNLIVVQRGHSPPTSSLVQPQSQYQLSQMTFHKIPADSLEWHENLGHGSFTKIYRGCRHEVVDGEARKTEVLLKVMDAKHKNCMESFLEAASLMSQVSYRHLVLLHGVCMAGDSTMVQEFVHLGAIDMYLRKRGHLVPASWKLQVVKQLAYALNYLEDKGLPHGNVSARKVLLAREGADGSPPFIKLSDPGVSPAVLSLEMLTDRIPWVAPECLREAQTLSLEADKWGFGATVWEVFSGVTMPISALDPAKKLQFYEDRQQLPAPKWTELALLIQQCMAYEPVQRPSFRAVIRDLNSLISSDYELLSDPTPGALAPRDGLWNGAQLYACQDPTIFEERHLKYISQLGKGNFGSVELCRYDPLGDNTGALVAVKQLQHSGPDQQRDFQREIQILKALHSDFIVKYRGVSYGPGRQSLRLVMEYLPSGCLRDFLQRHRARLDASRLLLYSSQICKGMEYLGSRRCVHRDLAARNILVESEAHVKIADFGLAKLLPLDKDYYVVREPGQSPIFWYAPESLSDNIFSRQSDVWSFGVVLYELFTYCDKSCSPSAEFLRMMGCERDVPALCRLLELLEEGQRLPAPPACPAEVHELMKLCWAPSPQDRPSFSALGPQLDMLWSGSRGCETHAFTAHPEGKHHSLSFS
Procedure, shortened: (§1)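 Test compounds were diluted in DMSO as an 11-point half-log series from a 600 μM top concentration (DMSO series, not final assay level). Enzyme amount and incubation time were set per enzyme prep to reach 20%-30% phosphorylation. Phosphorylated and unphosphorylated peptide were resolved by microfluidic separation.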

JAK3 enzyme [2] = target: T1, JAK3 enzyme; assay: JAK Caliper Enzyme Assay at 4 μM ATP; type: biochemical
Procedure, shortened: as §1

Structure (SMILES) | IC50 (JAK3 enzyme [1]) | IC50 (JAK3 enzyme [2])
C=CC(=O)N1CCN(c2cnc3[nH]cc(C(=O)N[C@@H](CO)c4ccc(F)cc4)c3n2)CC1(C)C [Example 146, 2-(4-acryloyl-3,3-dimethylpiperazin-1-yl)-N-[(1R)-1-(4-fluorophenyl)-2-hydroxyethyl]-5H-pyrrolo[2,3-b]pyrazine-7-carboxamide] | 1370 nM | 12.2 nM
C=CC(=O)N1CCN(c2cnc3[nH]cc(C(=O)N[C@@H](C)COc4ccccc4)c3n2)CC1(C)C [Example 147, 2-(4-acryloyl-3,3-dimethylpiperazin-1-yl)-N-[(2S)-1-phenoxypropan-2-yl] 5H-pyrrolo[2,3-b]pyrazine-7-carboxamide] | 3710 nM | 41.7 nM
C=CC(=O)N1CCN(c2cnc3[nH]cc(C(=O)N[C@H]4CCOC4)c3n2)CC1(C)C [Example 150, 2-(4-acryloyl-3,3-dimethylpiperazin-1-yl)-N-[(3S)-tetrahydrofuran-3-yl] 5H-pyrrolo[2,3-b]pyrazine-7-carboxamide] | 1110 nM | 8.09 nM
C=CC(=O)N1CCN(c2cnc3[nH]cc(C(=O)NC(C)(C)COC)c3n2)CC1(C)C [Example 151, 2-(4-acryloyl-3,3-dimethylpiperazin-1-yl)-N-(1-methoxy-2-methylpropan-2-yl)-5H-pyrrolo[2,3-b]pyrazine-7-carboxamide] | 1520 nM | 13.6 nM
C=CC(=O)N1CCN(c2cnc3[nH]cc(C(=O)N[C@@H](C)[C@H](O)c4ccccc4)c3n2)CC1(C)C [Example 156, 2-(4-acryloyl-3,3-dimethylpiperazin-1-yl)-N-[(1R,2S)-1-hydroxy-1-phenylpropan-2-yl]-5H-pyrrolo[2,3-b]pyrazine-7-carboxamide] | 4090 nM | 28.9 nM
C=CC(=O)N1CCN(c2cnc3[nH]cc(C(=O)N[C@@H](CO)Cc4cccc(C#N)c4)c3n2)CC1(C)C [Example 157, 2-(4-acryloyl-3,3-dimethylpiperazin-1-yl)-N-[(2R)-1-(3-cyanophenyl)-3-hydroxypropan-2-yl]-5H-pyrrolo[2,3-b]pyrazine-7-carboxamide] | 2900 nM | 20.6 nM
C=CC(=O)N1CCN(c2cnc3[nH]cc(C(=O)N[C@@H]4COC[C@@H]4n4cc(F)cn4)c3n2)CC1(C)C [Example 159, 2-(4-acryloyl-3,3-dimethylpiperazin-1-yl)-N-[(3S,4R)-4-(4-fluoro-1H-pyrazol-1-yl)tetrahydrofuran-3-yl]-5H-pyrrolo[2,3-b]pyrazine-7-carboxamide] | 865 nM | 6.31 nM
C=CC(=O)N1CCN(c2cnc3[nH]cc(C(=O)N[C@@H]4CCO[C@H]4C)c3n2)CC1(C)C [Example 160, 3-({[2-(4-acryloyl-3,3-dimethylpiperazin-1-yl)-5H-pyrrolo[2,3-b]pyrazin-7-yl]carbonyl}amino)-2,5-anhydro-1,3,4-trideoxy-D-erythro-pentitol] | 463 nM | 4.33 nM
C=CC(=O)N1CCN(c2cnc3[nH]cc(C(=O)N[C@H](CO)CCC)c3n2)CC1(C)C [Example 161, 2-(4-acryloyl-3,3-dimethylpiperazin-1-yl)-N-[(2S)-1-hydroxypentan-2-yl] 5H-pyrrolo[2,3-b]pyrazine-7-carboxamide] | 1120 nM | 7.35 nM

Results, then the molecule that gave them:

IC50 (JAK3 enzyme [1]) | IC50 (JAK3 enzyme [2]) | Structure (SMILES)
581 nM | 6.19 nM | C=CC(=O)N1CCN(c2cnc3[nH]cc(C(=O)N[C@@H](c4ccccc4)C(C)(C)O)c3n2)CC1(C)C [Example 162, 2-(4-acryloyl-3,3-dimethylpiperazin-1-yl)-N-[(1S)-2-hydroxy-2-methyl-1-phenylpropyl]-5H-pyrrolo[2,3-b]pyrazine-7-carboxamide]
599 nM | 4.61 nM | C=CC(=O)N1CCN(c2cnc3[nH]cc(C(=O)N[C@H](C)COc4ccccc4)c3n2)CC1(C)C [Example 167, 2-(4-acryloyl-3,3-dimethylpiperazin-1-yl)-N-[(2R)-1-phenoxypropan-2-yl]-5H-pyrrolo[2,3-b]pyrazine-7-carboxamide]
769 nM | 7.76 nM | C=CC(=O)N1CCN(c2cnc3[nH]cc(C(=O)N[C@@H]4COc5ccccc5C4)c3n2)CC1(C)C [Example 168, 2-(4-acryloyl-3,3-dimethylpiperazin-1-yl)-N-[(3S)-3,4-dihydro-2H-chromen-3-yl]-5H-pyrrolo[2,3-b]pyrazine-7-carboxamide]
845 nM | 7.31 nM | C=CC(=O)N1CCN(c2cnc3[nH]cc(C(=O)N[C@H](C)COCc4ccccc4)c3n2)CC1(C)C [Example 169, 2-(4-acryloyl-3,3-dimethylpiperazin-1-yl)-N-[(2R)-1-(benzyloxy)propan-2-yl]-5H-pyrrolo[2,3-b]pyrazine-7-carboxamide]
22 nM | 0.993 nM | C=CC(=O)N1CCC(Nc2cnc3[nH]cc(C(=O)NCc4nc5ccc(F)cc5o4)c3n2)CC1 [Example 194, 2-[(1-acryloylpiperidin-4-yl)amino]-N-[(6-fluoro-1,3-benzoxazol-2-yl)methyl]-5H-pyrrolo[2,3-b]pyrazine-7-carboxamide]
697 nM | 5.31 nM | C=CC(=O)N1CCC(Oc2cnc3[nH]cc(C(=O)N[C@H](C(C)C)[C@@H](O)C(F)(F)F)c3n2)CC1 [Example 202, 2-[(1-acryloylpiperidin-4-yl)oxy]-N-[(2R,3R)-1,1,1-trifluoro-2-hydroxy-4-methylpentan-3-yl]-5H-pyrrolo[2,3-b]pyrazine-7-carboxamide]
538 nM | 4.07 nM | C=CC(=O)N1CCC(Oc2cnc3[nH]cc(C(=O)NCC4(O)CCC(F)(F)CC4)c3n2)CC1 [Example 207, 2-[(1-acryloylpiperidin-4-yl)oxy]-N-[(4,4-difluoro-1-hydroxycyclohexyl)methyl]-5H-pyrrolo[2,3-b]pyrazine-7-carboxamide]
734 nM | 6.99 nM | C=CC(=O)N1CCC(Oc2cnc3[nH]cc(C(=O)NC[C@@]4(O)CCCC[C@H]4F)c3n2)CC1 [Example 208, 2-[(1-acryloylpiperidin-4-yl)oxy]-N-{[(2R)-2-fluoro-1-hydroxycyclohexyl]methyl}-5H-pyrrolo[2,3-b]pyrazine-7-carboxamide]
463 nM | 3.27 nM | C=CC(=O)N1CCC(Oc2cnc3[nH]cc(C(=O)N[C@@H]4C[C@H]4C(F)(F)F)c3n2)CC1 [Example 216, 2-[(1-acryloylpiperidin-4-yl)oxy]-N-[(1R,2R)-2-(trifluoromethyl)cyclopropyl]-5H-pyrrolo[2,3-b]pyrazine-7-carboxamide]
713 nM | 4.4 nM | C=CC(=O)N1CCC(Oc2cnc3[nH]cc(C(=O)NCC(C)(C)C)c3n2)CC1 [Example 221, 2-[(1-acryloylpiperidin-4-yl)oxy]-N-(2,2-dimethylpropyl)-5H-pyrrolo[2,3-b]pyrazine-7-carboxamide]
606 nM | 2.5 nM | C=CC(=O)N1C[C@H](Nc2cnc3[nH]cc(C(=O)NCCOC)c3n2)[C@@](C)(C#N)C1 [Example 232, 2-{[(3R,4S)-1-acryloyl-4-cyano-4-methylpyrrolidin-3-yl]amino}-N-(2-methoxyethyl)-5H-pyrrolo[2,3-b]pyrazine-7-carboxamide]
1100 nM | 6.79 nM | C=CC(=O)N1C[C@H](Nc2cnc3[nH]cc(C(=O)NCCOC)c3n2)C[C@H]1COCC [Example 233, 2-{[(3R,5S)-1-acryloyl-5-(ethoxymethyl)pyrrolidin-3-yl]amino}-N-(2-methoxyethyl)-5H-pyrrolo[2,3-b]pyrazine-7-carboxamide]
